Literature values as cited in patent US5703067A, “Inhibitors of farnesyl-protein transferase” (Merck & Co., Inc., priority 1995, dated 1997).

System: farnesyl-protein transferase
Settings: via HMG-CoA reductase inhibition, literature

Row | SMILES | Indirect inhibition of farnesyl-protein transferase in vivo
1 | CC[C@H](C)C(=O)O[C@H]1CCC=C2C=C[C@H](C)[C@H](CC[C@@H]3C[C@@H](O)CC(=O)O3)[C@H]21 [compactin] | Indirect inhibition of farnesyl-protein transferase in vivo has been demonstrated
2 | CC[C@H](C)C(=O)O[C@H]1C[C@@H](C)C=C2C=C[C@H](C)[C@H](CC[C@@H]3C[C@@H](O)CC(=O)O3)[C@H]21 [lovastatin] | Indirect inhibition of farnesyl-protein transferase in vivo has been demonstrated
